Experimental data as given in US20230085307A1, “PYRIDAZINONE COMPOUND AND HERBICIDE” (NISSAN CHEMICAL CORPORATION, priority 2019, published 2023).

What was measured:
[1] = test system: wild oat; assay: Test Example 4: herbicidal effect by soil treatment (Table 19, symbol I); assay type: in vivo, wild oat (Avena fatua); conditions: amount of applied herbicide 320 g/ha
How it was run: (§1)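 Emulsion of test compound, water-diluted to predetermined amount, sprayed on soil after sowing (seed depth ~1.5 cm, sterilized diluvial soil). Greenhouse, 25–30° C. Effect graded at three weeks post-spray.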

[2] = test system: Italian ryegrass; assay: Test Example 5: herbicidal effect by foliage application, plastic box (Table 20, symbol K); assay type: in vivo, Italian ryegrass (Lolium multiflorum); conditions: foliage application
How it was run: (§2)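 Post-emergence foliar test in sterilized diluvial soil. Compound applied as water-diluted emulsion at a predetermined rate to 14-day-old plants; evaluation at three weeks.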

[3] = test system: barnyard grass; assay: Test Example 3: herbicidal effect by foliage application, Wagner pot (Table 18, symbol H); assay type: in vivo, barnyard grass (Echinochloa crus-galli); conditions: amount of applied herbicide 320 g/ha
How it was run: (§3)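 Plants were sown in alluvial soil held under 0.1–0.5 cm standing water and grown 14 days in a greenhouse at 25–30 °C. An emulsifiable formulation, water-diluted to the set dose, was then sprayed onto the foliage, and effects were scored three weeks later using previously defined criteria.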

[4] = test system: persian speedwell; assay: Test Example 4: herbicidal effect by soil treatment (Table 19, symbol R); assay type: in vivo, Persian speedwell (Veronica persica); conditions: amount of applied herbicide 320 g/ha
How it was run: as §1

[5] = test system: green foxtail; assay: Test Example 5: herbicidal effect by foliage application, plastic box (Table 20, symbol G); assay type: in vivo, green foxtail (Setaria viridis); conditions: foliage application
How it was run: as §2

[6] = test system: southern crabgrass; assay: Test Example 4: herbicidal effect by soil treatment (Table 19, symbol F); assay type: in vivo, southern crabgrass (Digitaria ciliaris); conditions: amount of applied herbicide 320 g/ha
How it was run: as §1

[7] = test system: Chinese sprangletop; assay: Test Example 3: herbicidal effect by foliage application, Wagner pot (Table 18, symbol D); assay type: in vivo, chinese sprangletop (Leptochloa chinensis); conditions: amount of applied herbicide 320 g/ha
How it was run: as §3

[8] = test system: barnyard grass; assay: Test Example 5: herbicidal effect by foliage application, plastic box (Table 20, symbol H); assay type: in vivo, barnyard grass (Echinochloa crus-galli); conditions: foliage application
How it was run: as §2

[9] = test system: rice flat sedge; assay: Test Example 3: herbicidal effect by foliage application, Wagner pot (Table 18, symbol E); assay type: in vivo, rice flat sedge (Cyperus iria); conditions: amount of applied herbicide 320 g/ha
How it was run: as §3

[10] = test system: southern crabgrass; assay: Test Example 5: herbicidal effect by foliage application, plastic box (Table 20, symbol F); assay type: in vivo, southern crabgrass (Digitaria ciliaris); conditions: foliage application
How it was run: as §2

[11] = test system: redroot pigweed; assay: Test Example 5: herbicidal effect by foliage application, plastic box (Table 20, symbol N); assay type: in vivo, redroot pigweed (Amaranthus retroflexus); conditions: foliage application
How it was run: as §2

[12] = test system: windgrass; assay: Test Example 4: herbicidal effect by soil treatment (Table 19, symbol L); assay type: in vivo, windgrass (Apera spica-venti); conditions: amount of applied herbicide 320 g/ha
How it was run: as §1

[13] = test system: velvetleaf; assay: Test Example 4: herbicidal effect by soil treatment (Table 19, symbol M); assay type: in vivo, velvetleaf (Abutilon theophrasti); conditions: amount of applied herbicide 320 g/ha
How it was run: as §1

[14] = test system: Italian ryegrass; assay: Test Example 4: herbicidal effect by soil treatment (Table 19, symbol K); assay type: in vivo, Italian ryegrass (Lolium multiflorum); conditions: amount of applied herbicide 320 g/ha
How it was run: as §1

[15] = test system: Japanese bulrush; assay: Test Example 1: herbicidal activity, application before weed generation under submerged conditions (Table 16, symbol B); assay type: in vivo, Japanese bulrush (Schoenoplectus juncoides)
How it was run: (§4)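 Alluvial soil was flooded to 4 cm depth, weed seeds were sown mixed and 2.5-leaf rice seedlings were transplanted. On sowing day, the compound's emulsion, diluted in water to a set dose, was applied to the water surface. Plants grew at 25–30 °C and were scored 0–5 after three weeks.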

[16] = test system: green foxtail; assay: Test Example 4: herbicidal effect by soil treatment (Table 19, symbol G); assay type: in vivo, green foxtail (Setaria viridis); conditions: amount of applied herbicide 320 g/ha
How it was run: as §1

[17] = test system: blackgrass; assay: Test Example 5: herbicidal effect by foliage application, plastic box (Table 20, symbol J); assay type: in vivo, blackgrass (Alopecurus myosuroides); conditions: foliage application
How it was run: as §2

[18] = test system: redroot pigweed; assay: Test Example 4: herbicidal effect by soil treatment (Table 19, symbol N); assay type: in vivo, redroot pigweed (Amaranthus retroflexus); conditions: amount of applied herbicide 320 g/ha
How it was run: as §1

[19] = test system: chickweed; assay: Test Example 4: herbicidal effect by soil treatment (Table 19, symbol P); assay type: in vivo, common chickweed (Stellaria media); conditions: amount of applied herbicide 320 g/ha
How it was run: as §1

[20] = test system: chickweed; assay: Test Example 5: herbicidal effect by foliage application, plastic box (Table 20, symbol P); assay type: in vivo, common chickweed (Stellaria media); conditions: foliage application
How it was run: as §2

[21] = test system: velvetleaf; assay: Test Example 5: herbicidal effect by foliage application, plastic box (Table 20, symbol M); assay type: in vivo, velvetleaf (Abutilon theophrasti); conditions: foliage application
How it was run: as §2

[22] = test system: lambsquarters; assay: Test Example 5: herbicidal effect by foliage application, plastic box (Table 20, symbol O); assay type: in vivo, lambsquarters (Chenopodium album); conditions: foliage application
How it was run: as §2

[23] = test system: blackgrass; assay: Test Example 4: herbicidal effect by soil treatment (Table 19, symbol J); assay type: in vivo, blackgrass (Alopecurus myosuroides); conditions: amount of applied herbicide 320 g/ha
How it was run: as §1

[24] = test system: lambsquarters; assay: Test Example 4: herbicidal effect by soil treatment (Table 19, symbol O); assay type: in vivo, lambsquarters (Chenopodium album); conditions: amount of applied herbicide 320 g/ha
How it was run: as §1

[25] = test system: persian speedwell; assay: Test Example 5: herbicidal effect by foliage application, plastic box (Table 20, symbol R); assay type: in vivo, Persian speedwell (Veronica persica); conditions: foliage application
How it was run: as §2

[26] = test system: late watergrass; assay: Test Example 1: herbicidal activity, application before weed generation under submerged conditions (Table 16, symbol A); assay type: in vivo, late watergrass (Echinochloa oryzicola)
How it was run: as §4

[27] = test system: barnyard grass; assay: Test Example 4: herbicidal effect by soil treatment (Table 19, symbol H); assay type: in vivo, barnyard grass (Echinochloa crus-galli); conditions: amount of applied herbicide 320 g/ha
How it was run: as §1

[28] = test system: oval-leafed pondweed; assay: Test Example 1: herbicidal activity, application before weed generation under submerged conditions (Table 16, symbol C); assay type: in vivo, oval-leafed pondweed (Monochoria vaginalis)
How it was run: as §4

[29] = test system: wild oat; assay: Test Example 5: herbicidal effect by foliage application, plastic box (Table 20, symbol I); assay type: in vivo, wild oat (Avena fatua); conditions: foliage application
How it was run: as §2

[30] = AAH 320 g/ha, evaluated three weeks after application
[31] = 320 g/ha, three weeks after application
[32] = amount of applied herbicide 320 g/ha

In the case of `Cc1nn(C)c(=O)c(-c2c(-c3ccc(OC(F)F)cc3)sc3ccc(F)cc23)c1OS(=O)(=O)N(C)C` [2-310], the “herbicidal effect on I: wild oat” value [1] is reported as 0 (Herbicidal rate of 5% or less (almost no effect)), the “K: Italian ryegrass, herbicidal effect (criteria 0-5)” value [2, 30] is reported as 0 (Herbicidal rate of 5% or less (almost no effect)) and the “herbicidal effect on H: barnyard grass” value [3] is reported as 5 (Herbicidal rate of 90% or more (almost completely withered)). The “herbicidal effect on R: persian speedwell” value [4] was 4 (Herbicidal rate of 70% or more and less than 90%), the “G: green foxtail, herbicidal effect (criteria 0-5)” value [5, 30] was 5 (Herbicidal rate of 90% or more (almost completely withered)) and the “herbicidal effect on F: southern crabgrass” value [6] was 0 (Herbicidal rate of 5% or less (almost no effect)). For the same compound, the “herbicidal effect on D: Chinese sprangletop” value [7] was 4 (Herbicidal rate of 70% or more and less than 90%), the “H: barnyard grass, herbicidal effect (criteria 0-5)” value [8, 30] was 5 (Herbicidal rate of 90% or more (almost completely withered)) and the “herbicidal effect on E: rice flat sedge” value [9] was 3 (Herbicidal rate of 40% or more and less than 70%). The “F: southern crabgrass, herbicidal effect (criteria 0-5)” value [10, 30] was 0 (Herbicidal rate of 5% or less (almost no effect)), the “N: redroot pigweed, herbicidal effect (criteria 0-5)” value [11, 30] was 5 (Herbicidal rate of 90% or more (almost completely withered)) and the “herbicidal effect on L: windgrass” value [12] was 0 (Herbicidal rate of 5% or less (almost no effect)). The “herbicidal effect on M: velvetleaf” value [13] was 0 (Herbicidal rate of 5% or less (almost no effect)), the “herbicidal effect on K: Italian ryegrass” value [14] was 0 (Herbicidal rate of 5% or less (almost no effect)) and the “Herbicidal effect on B: Japanese bulrush (grade 0-5)” value ([15]; 320 g/ha applied herbicide) was 2 (Herbicidal rate of 20% or more and less than 40%). The “herbicidal effect on G: green foxtail” value [16] was 0 (Herbicidal rate of 5% or less (almost no effect)), the “J: blackgrass, herbicidal effect (criteria 0-5)” value [17, 30] was 0 (Herbicidal rate of 5% or less (almost no effect)) and the “herbicidal effect on N: redroot pigweed” value [18] was 0 (Herbicidal rate of 5% or less (almost no effect)). The “herbicidal effect on P: chickweed” value [19] was 3 (Herbicidal rate of 40% or more and less than 70%), the “P: chickweed, herbicidal effect (criteria 0-5)” value [20, 30] was 5 (Herbicidal rate of 90% or more (almost completely withered)) and the “M: velvetleaf, herbicidal effect (criteria 0-5)” value [21, 30] was 5 (Herbicidal rate of 90% or more (almost completely withered)). The “O: lambsquarters, herbicidal effect (criteria 0-5)” value [22, 30] was 5 (Herbicidal rate of 90% or more (almost completely withered)), the “herbicidal effect on J: blackgrass” value [23] was 0 (Herbicidal rate of 5% or less (almost no effect)) and the “herbicidal effect on O: lambsquarters” value [24] was 0 (Herbicidal rate of 5% or less (almost no effect)). The “R: persian speedwell, herbicidal effect (criteria 0-5)” value [25, 30] was 5 (Herbicidal rate of 90% or more (almost completely withered)), the “Herbicidal effect on A: late watergrass (grade 0-5)” value ([26]; 320 g/ha applied herbicide) was 0 (Herbicidal rate of 5% or less (almost no effect)) and the “herbicidal effect on H: barnyard grass” value [27] was 0 (Herbicidal rate of 5% or less (almost no effect)). For the same compound, the “Herbicidal effect on C: oval-leafed pondweed (grade 0-5)” value ([28]; 320 g/ha applied herbicide) was 0 (Herbicidal rate of 5% or less (almost no effect)) and the “I: wild oat, herbicidal effect (criteria 0-5)” value [29, 30] was 0 (Herbicidal rate of 5% or less (almost no effect)).

`COCCn1nc(C)c(O)c(-c2c(-c3ccc(F)cc3)sc3ccc(F)cc23)c1=O` [2-429] was tested, and the “herbicidal effect, I: wild oat” value [1] was 0 (Herbicidal rate of 5% or less (almost no effect)), the “K: Italian ryegrass, herbicidal effect grade” value [2, 31] was 0 (Herbicidal rate of 5% or less (almost no effect)) and the “herbicidal effect on H: barnyard grass” value [3] was 3 (Herbicidal rate of 40% or more and less than 70%). For the same compound, the “herbicidal effect, R: persian speedwell” value [4] was 0 (Herbicidal rate of 5% or less (almost no effect)), the “G: green foxtail, herbicidal effect grade” value [5, 31] was 0 (Herbicidal rate of 5% or less (almost no effect)) and the “herbicidal effect, F: southern crabgrass” value [6] was 0 (Herbicidal rate of 5% or less (almost no effect)). The “herbicidal effect on D: Chinese sprangletop” value [7] was 0 (Herbicidal rate of 5% or less (almost no effect)), the “H: barnyard grass, herbicidal effect grade” value [8, 31] was 0 (Herbicidal rate of 5% or less (almost no effect)) and the “herbicidal effect on E: rice flat sedge” value [9] was 0 (Herbicidal rate of 5% or less (almost no effect)). For the same compound, the “F: southern crabgrass, herbicidal effect grade” value [10, 31] was 2 (Herbicidal rate of 20% or more and less than 40%), the “N: redroot pigweed, herbicidal effect grade” value [11, 31] was 3 (Herbicidal rate of 40% or more and less than 70%) and the “herbicidal effect, L: windgrass” value [12] was 0 (Herbicidal rate of 5% or less (almost no effect)). For the same compound, the “herbicidal effect, M: velvetleaf” value [13] was 1 (Herbicidal rate of 5% or more and less than 20%), the “herbicidal effect, K: Italian ryegrass” value [14] was 0 (Herbicidal rate of 5% or less (almost no effect)) and the “Herbicidal effect, B: Japanese bulrush” value [15, 32] was 2 (Herbicidal rate of 20% or more and less than 40%). The “herbicidal effect, G: green foxtail” value [16] was 0 (Herbicidal rate of 5% or less (almost no effect)), the “J: blackgrass, herbicidal effect grade” value [17, 31] was 0 (Herbicidal rate of 5% or less (almost no effect)) and the “herbicidal effect, N: redroot pigweed” value [18] was 3 (Herbicidal rate of 40% or more and less than 70%). For the same compound, the “herbicidal effect, P: chickweed” value [19] was 0 (Herbicidal rate of 5% or less (almost no effect)), the “P: chickweed, herbicidal effect grade” value [20, 31] was 5 (Herbicidal rate of 90% or more (almost completely withered)) and the “M: velvetleaf, herbicidal effect grade” value [21, 31] was 2 (Herbicidal rate of 20% or more and less than 40%). The “O: lambsquarters, herbicidal effect grade” value [22, 31] was 0 (Herbicidal rate of 5% or less (almost no effect)), the “herbicidal effect, J: blackgrass” value [23] was 0 (Herbicidal rate of 5% or less (almost no effect)) and the “herbicidal effect, O: lambsquarters” value [24] was 0 (Herbicidal rate of 5% or less (almost no effect)). For the same compound, the “R: persian speedwell, herbicidal effect grade” value [25, 31] was 4 (Herbicidal rate of 70% or more and less than 90%), the “Herbicidal effect, A: late watergrass” value [26, 32] was 3 (Herbicidal rate of 40% or more and less than 70%) and the “herbicidal effect, H: barnyard grass” value [27] was 0 (Herbicidal rate of 5% or less (almost no effect)). For the same compound, the “Herbicidal effect, C: oval-leafed pondweed” value [28, 32] was 3 (Herbicidal rate of 40% or more and less than 70%) and the “I: wild oat, herbicidal effect grade” value [29, 31] was 0 (Herbicidal rate of 5% or less (almost no effect)).
